Data as given in patent US20250188079A1, “INHIBITING CYCLIC AMP-RESPONSIVE ELEMENT-BINDING PROTEIN (CREB)” (Forma Therapeutics, Inc., priority 2019, published 2025).

Molecular target: CBP (Homo sapiens (Human), UniProt Q92793)
Experiment: HTRF biochemical assay for CBP activity (TR-FRET, bromodomain)
Format: binding
Conditions: geometric mean, 10-point 3-fold dilution 33 μM to 1.7 nM, read-out: BROMO IC50 TRF TB CBP (μM gmean)
Summary of the method: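 Compounds were tested as 10-point, 3-fold dilutions (33 μM to 1.7 nM final) against CBP protein and peptide ligand in pH 7.5 Hepes buffer with GSH, BGG, BSA and Triton X-100 at room temperature for varying times. The TR-FRET 520/490 ratio gave % inhibition versus no-enzyme and DMSO controls, and IC50 came from 4-parameter logistic fits.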

Sequence of CBP (Q92793 1085-1192): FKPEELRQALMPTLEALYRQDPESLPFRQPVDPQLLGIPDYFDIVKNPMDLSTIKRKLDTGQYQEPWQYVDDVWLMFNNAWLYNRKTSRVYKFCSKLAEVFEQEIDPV

| IC50 [µM] | Compound |
| --- | --- |
| 0.001 to 0.01 | COC(=O)N1CCc2ccc3c(nc(C4CCCCC4)n3CC[C@H]3CC[C@@H](C(=O)O)CC3)c2C1 [Compound 87] |
| 0.001 to 0.01 | COC(=O)N1CCc2cc(CC#N)c3c(nc([C@H]4CC[C@H](C(=O)O)CC4)n3CCc3ccccc3)c2C1 [Compound 118] |
| 0.1 to 1 | COC(=O)N1CCc2ccc3c(nc([C@H]4CC[C@H](C(=O)O)CC4)n3[C@H](C)Cc3ccccc3)c2C1 [Compound 312] |
| 0.001 to 0.01 | COC(=O)N1CCc2ccc3c(nc(C4CCCCC4)n3C[C@H](C(=O)O)c3cccc(F)c3F)c2C1 [Compound 104] |
| 0.001 to 0.01 | COC(=O)N1CCc2ccc3c(nc(C4CCCCC4)n3C[C@@](C)(C(=O)O)c3ccccc3)c2C1 [Compound 150] |
| 0.001 to 0.01 | COC(=O)N1CCc2ccc3c(nc([C@@H]4CCC[C@@H](C(=O)O)C4)n3CC[C@H]3CC[C@H](OC)CC3)c2C1 [Compound 156] |
| 0.001 to 0.01 | COC(=O)N1CCc2ccc3c(nc([C@H]4CC[C@@H](S(N)(=O)=O)CC4)n3[C@@H](C)Cc3ccccc3)c2C1 [Compound 166] |
| 0.001 to 0.01 | COC(=O)N1CCc2ccc3c(nc([C@H]4CC[C@H](C(=O)O)CC4)n3CCc3ccc(OC(F)F)cc3)c2C1 [Compound 155] |
| 0.001 to 0.01 | COC(=O)N1CCc2ccc3c(nc(N4CCC(C(=O)O)CC4)n3[C@@H](C)Cc3ccccc3)c2C1 (single isomer, unassigned) [Compound 5] |
| 0.001 to 0.01 | COC(=O)N1CCc2ccc3c(nc(N4CCC(C(=O)O)CC4)n3[C@@H](C)C(F)(F)c3ccccc3)c2C1 (single isomer, unassigned) [Compound 24] |
| 0.01 to 0.1 | COC(=O)N1CCc2ccc3c(nc([C@H]4CC[C@H](C(=O)O)CC4)n3[C@H](C)C[C@H]3CCCCO3)c2C1 [Compound 179] |
| 0.1 to 1 | COC(=O)N1CCc2ccc3c(nc(N4CCC[C@H](C(=O)O)C4)n3[C@H](C)Cc3ccccc3)c2C1 [Compound 339] |
| 0.01 to 0.1 | COC(=O)N1CCc2ccc3c(nc(C4CCCCC4)n3C[C@@H]3CCCC[C@@H]3C(=O)O)c2C1 [Compound 195] |
| 0.1 to 1 | COC(=O)N1CCc2ccc3c(nc([C@H]4CC[C@H](C(=O)O)CC4)n3[C@@H](C)Cc3ccccc3F)c2C1 [Compound 314] |
| 0.1 to 1 | COC(=O)N1CCc2ccc3c(nc([C@H]4CC[C@H](C(=O)O)CC4)n3C(=O)N(C)c3ccccc3)c2C1 [Compound 292] |
| 0.1 to 1 | COC(=O)N1Cc2c(ccc3c2nc(C2CCCCC2)n3Cc2ccccc2)CC1C (stereo not shown) [Compound 328] |
| 0.001 to 0.01 | COC(=O)N1CCc2ccc3c(nc(N4CCC(C(=O)O)CC4)n3[C@@H](C)Cc3ccccc3C)c2C1 [Compound 63] |
| 0.01 to 0.1 | COC(=O)N1CCc2ccc3c(nc(C4CCCCC4)n3[C@@H](C)C[C@H]3CCCC[C@H]3C(=O)O)c2C1 [Compound 204] |
| 0.001 to 0.01 | COC(=O)N1CCc2ccc3c(nc(-c4cccc(CC(=O)O)c4)n3[C@@H](C)Cc3cc(F)cc(F)c3)c2C1 [Compound 116] |
| 0.1 to 1 | COC(=O)N1CCc2ccc3c(nc(N4CCN(C(C)=O)CC4)n3[C@@H](C)Cc3ccccc3)c2C1 [Compound 324] |

| IC50 [µM] | Compound |
| --- | --- |
| 0.01 to 0.1 | COC(=O)N1CCc2ccc3c(nc([C@H]4CC[C@H](C(=O)O)CC4)n3C[C@H](OC)c3ccccc3)c2C1 [Compound 191] |
| 0.001 to 0.01 | COC(=O)N1CCc2ccc3c(nc(C4CCCCC4)n3CCc3ccccc3)c2C1 [Compound 170] |
| 0.001 to 0.01 | COC(=O)N1CCc2ccc3c(nc([C@H]4CC[C@H](C(=O)O)CC4)n3Cc3ccc(OC)c(F)c3)c2C1 [Compound 94] |
| 0.1 to 1 | COC(=O)N1CCc2ccc3c(nc([C@H]4CC[C@H](C(=O)O)CC4)n3[C@H](C)Cc3cccc(C)c3)c2C1 [Compound 334] |
| 0.001 to 0.01 | COC(=O)N1CCc2ccc3c(nc([C@H]4CC[C@@H](C(=O)O)C4)n3[C@H](C)Cc3ccccc3C)c2C1 [Compound 59] |
| 0.001 to 0.01 | COC(=O)N1CCc2ccc3c(nc([C@H]4CC[C@H](C(=O)O)CC4)n3[C@H](C)Cc3ccc(F)c(F)c3)c2C1 [Compound 40] |
| 0.001 to 0.01 | COC(=O)N1CCc2ccc3c(nc([C@H]4CC[C@@](C)(C(=O)O)CC4)n3[C@@H](C)Cc3ccccc3)c2C1 [Compound 49] |
| 0.001 to 0.01 | COC(=O)N1CCc2ccc3c(nc([C@H]4CC[C@@H](S(=O)(=O)NC(C)=O)CC4)n3[C@H](C)Cc3ccccc3)c2C1 [Compound 162] |
| 0.01 to 0.1 | COC(=O)N1CCc2ccc3c(nc(-c4ccc(C(C)(C)C(=O)O)cc4)n3[C@@H](C)Cn3cc(Cl)cn3)c2C1 [Compound 258] |
| 0.01 to 0.1 | COC(=O)N1CCc2ccc3c(nc([C@H]4CC[C@H](C(=O)O)CC4)n3C[C@@H](OC)c3ccccc3)c2C1 [Compound 214] |
| 0.01 to 0.1 | COC(=O)N1CCc2ccc3c(nc([C@H]4CC[C@@H](C(=O)O)CC4)n3CC(NC(C)=O)c3ccccc3)c2C1 (stereo partly shown) [Compound 248] |
| 0.1 to 1 | COC(=O)N1CCc2ccc3c(nc(C4CCCCC4)n3[C@H](C)Cc3cccc(C(=O)O)c3)c2C1 [Compound 294] |
| 0.001 to 0.01 | COC(=O)N1CCc2ccc3c(nc(C4CCCCC4)n3CCc3cccc(C(=O)O)c3)c2C1 [Compound 105] |
| 0.001 to 0.01 | (1S,3S)-3-[3-[(2S)-1-(3,4-difluorophenyl)propan-2-yl]-8-(methoxycarbonyl)-3H,6H,7H,8H,9H-imidazo[4,5-h]isoquinolin-2-yl]cyclohexane-1-carboxylic acid [Compound 60] |
| 0.001 to 0.01 | COC(=O)N1CCc2ccc3c(nc(N4CCN(C(=O)O)CC4)n3[C@H](C)Cc3ccccc3)c2C1 [Compound 54] |
| 0.01 to 0.1 | COC(=O)N1CCc2ccc3c(nc([C@H]4CC[C@H](C(=O)O)CC4)n3[C@H](C)C[C@@H]3CCCOC3)c2C1 [Compound 212] |
| 0.001 to 0.01 | (1S,3S)-3-[3-[(2S)-2-(3,4-difluorophenyl)propyl]-8-(methoxycarbonyl)-3H,6H,7H,8H,9H-imidazo[4,5-h]isoquinolin-2-yl]cyclohexane-1-carboxylic acid [Compound 29] |
| 0.001 to 0.01 | COC(=O)N1CCc2c([C@@H]3CCOC3)cc3c(nc([C@H]4CC[C@H](C(=O)O)CC4)n3CCc3ccccc3)c2C1 [Compound 90] |
| 0.01 to 0.1 | COC(=O)N1CCc2ccc3c(nc([C@H]4CCC[C@H](C(=O)O)C4)n3[C@@H](C)Cc3ccccc3)c2C1 [Compound 261] |
| 0.1 to 1 | COC(=O)N1CCc2ccc3c(nc(N4CCC(C(=O)O)CC4)n3[C@H](C)Cc3ccc(F)c(F)c3)c2C1 (single isomer, unassigned) [Compound 307] |

| IC50 [µM] | Compound |
| --- | --- |
| 0.01 to 0.1 | COC(=O)N1CCc2c(Cl)cc3c(nc(C4CCCCC4)n3C[C@H](C(=O)O)c3ccccc3)c2C1 [Compound 223] |
| 0.01 to 0.1 | COC(=O)N1CCc2ccc3c(nc([C@@H]4CCC[C@H](C(=O)O)C4)n3[C@@H](C)Cc3ccccc3)c2C1 (single isomer, unassigned) [Compound 203] |
| 0.01 to 0.1 | COC(=O)N1Cc2c(ccc3c2nc(C2CCCCC2)n3Cc2ccccc2)C[C@H]1C [Compound 282] |
| 1 to 1000 | COC(=O)N1CCc2ccc3c(nc(N4CCNCC4)n3[C@H](C)Cc3ccccc3)c2C1 [Compound 347] |
| 0.001 to 0.01 | COC(=O)N1CCc2ccc3c(nc([C@H]4CC[C@H](C(=O)O)CC4)n3[C@@H](C)Cc3cc(F)cc(F)c3)c2C1 (single isomer, unassigned) [Compound 3] |
| 0.01 to 0.1 | COC(=O)N1CCc2c([C@H]3CCOC3)cc3c(nc([C@H]4CC[C@H](C(=O)O)CC4)n3[C@H](C)Cc3ccccc3)c2C1 [Compound 201] |
| 0.001 to 0.01 | COC(=O)N1CCc2ccc3c(nc([C@H]4CCCOC4)n3C[C@H](C(=O)O)c3ccc(C)cc3)c2C1 [Compound 53] |
| 0.001 to 0.01 | COC(=O)N1CCc2ccc3c(nc(C4CCN(S(C)(=O)=O)CC4)n3[C@H](C)Cn3cc(Cl)cn3)c2C1 [Compound 110] |
| 0.001 to 0.01 | COC(=O)N1CCc2ccc3c(nc([C@H]4CCC[C@H](C(=O)O)C4)n3C(C)Cc3ccccc3Cl)c2C1 (stereo in doubt) [Compound 19, (1S,3S)-3-{3-[(2R)-1-(2-chlorophenyl)propan-2-yl]-8-(methoxycarbonyl)-3H,6H,7H,8H,9H-imidazo[4,5-h]isoquinolin-2-yl}cyclohexane-1-carboxylic acid] |
| 0.01 to 0.1 | COC(=O)N1CCc2ccc3c(nc(-c4ccc(C(=O)O)cc4)n3[C@H](C)Cc3ccccc3)c2C1 [Compound 279] |
| 0.01 to 0.1 | COC(=O)N1CCc2ccc3c(nc([C@H]4CC[C@H](C(=O)O)CC4)n3[C@@H](C)Cc3cnccn3)c2C1 [Compound 186] |
| 0.001 to 0.01 | COC(=O)N1CCc2ccc3c(nc([C@H]4CC[C@H](C(=O)O)CC4)n3[C@@H](C)Cc3ccccc3C)c2C1 [Compound 7] |
| 0.01 to 0.1 | COC(=O)N1CCc2ccc3c(nc(C4CCCCC4)n3[C@H](Cc3ccccc3)C(=O)O)c2C1 [Compound 206] |
| 0.001 to 0.01 | COC(=O)N1CCc2c(Cl)cc3c(nc([C@H]4CC[C@H](C(=O)O)CC4)n3CCc3ccccc3)c2C1 [Compound 154] |
| 0.001 to 0.01 | COC(=O)N1CCc2ccc3c(nc(C4CCCCC4)n3C[C@@H](CC(=O)O)c3cc(F)cc(OC)c3)c2C1 [Compound 35] |
| 0.01 to 0.1 | COC(=O)N1CCc2ccc3c(nc([C@H]4CC[C@H](C(=O)O)CC4)n3[C@H](C)Cc3ccc(C)c(F)c3)c2C1 (single isomer, unassigned) [Compound 283] |
| 0.01 to 0.1 | COC(=O)N1CCc2ccc3c(nc([C@H]4CC[C@H](C(=O)O)CC4)n3[C@@H](C)C[C@]3(C)CC[C@@H](OC)CC3)c2C1 [Compound 249] |
| 0.001 to 0.01 | COC(=O)N1CCc2ccc3c(nc(C4CCCCC4)n3C[C@H](CC(=O)O)c3ccccc3)c2C1 [Compound 167] |
| 0.001 to 0.01 | COC(=O)N1CCc2ccc3c(nc([C@H]4CC[C@H](C(=O)O)CC4)n3[C@@H](C)C[C@H]3CCCCO3)c2C1 [Compound 147] |
| 0.01 to 0.1 | COC(=O)N1CCc2ccc3c(nc(C45CC(C4)C5)n3C[C@@H](C(=O)O)c3ccccc3)c2C1 [Compound 246] |

| Compound | IC50 [µM] |
| --- | --- |
| COC(=O)N1CCc2ccc3c(nc(C4CCCCC4)n3C[C@H](CC(=O)O)c3ccc(F)c(F)c3)c2C1 [Compound 70] | 0.001 to 0.01 |
